Measured values taken from article PMC5569448 (Iranian Journal of Basic Medical Sciences, 2017).

Key:
Type in all cases: biochemical
[1] = target: acetylcholinesterase (AChE) (Homo sapiens, UniProt P22303); assay: AChE inhibition by Ellman's method; conditions: for inhibition at 35 µM: read-out: AChE % inhibition
[2] = target: butyrylcholinesterase (BuChE) (Homo sapiens, UniProt P06276); assay: BuChE inhibition by Ellman's method; conditions: for inhibition at 35 µM: read-out: BuChE % inhibition
Sequence of butyrylcholinesterase (BuChE) (P06276 29-602): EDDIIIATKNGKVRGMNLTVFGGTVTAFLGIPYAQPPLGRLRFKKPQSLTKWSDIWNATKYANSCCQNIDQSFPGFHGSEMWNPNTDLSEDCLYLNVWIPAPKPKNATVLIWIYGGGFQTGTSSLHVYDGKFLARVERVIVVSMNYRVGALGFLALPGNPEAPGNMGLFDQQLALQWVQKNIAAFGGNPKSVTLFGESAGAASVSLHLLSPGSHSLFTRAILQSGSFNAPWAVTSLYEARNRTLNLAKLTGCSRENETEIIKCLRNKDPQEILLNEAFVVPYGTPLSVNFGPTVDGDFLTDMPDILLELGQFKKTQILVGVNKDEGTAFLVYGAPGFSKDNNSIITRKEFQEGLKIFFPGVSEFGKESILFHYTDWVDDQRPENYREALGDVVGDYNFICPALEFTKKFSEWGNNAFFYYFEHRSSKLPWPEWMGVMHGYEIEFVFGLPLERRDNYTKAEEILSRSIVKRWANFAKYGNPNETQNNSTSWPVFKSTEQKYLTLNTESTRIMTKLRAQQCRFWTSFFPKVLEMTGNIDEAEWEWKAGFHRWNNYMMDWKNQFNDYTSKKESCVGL

AChE = AChE (Homo sapiens, UniProt P22303); assay: Kinetic study of AChE inhibition
Sequence of AChE (P22303 32-614, species assumed): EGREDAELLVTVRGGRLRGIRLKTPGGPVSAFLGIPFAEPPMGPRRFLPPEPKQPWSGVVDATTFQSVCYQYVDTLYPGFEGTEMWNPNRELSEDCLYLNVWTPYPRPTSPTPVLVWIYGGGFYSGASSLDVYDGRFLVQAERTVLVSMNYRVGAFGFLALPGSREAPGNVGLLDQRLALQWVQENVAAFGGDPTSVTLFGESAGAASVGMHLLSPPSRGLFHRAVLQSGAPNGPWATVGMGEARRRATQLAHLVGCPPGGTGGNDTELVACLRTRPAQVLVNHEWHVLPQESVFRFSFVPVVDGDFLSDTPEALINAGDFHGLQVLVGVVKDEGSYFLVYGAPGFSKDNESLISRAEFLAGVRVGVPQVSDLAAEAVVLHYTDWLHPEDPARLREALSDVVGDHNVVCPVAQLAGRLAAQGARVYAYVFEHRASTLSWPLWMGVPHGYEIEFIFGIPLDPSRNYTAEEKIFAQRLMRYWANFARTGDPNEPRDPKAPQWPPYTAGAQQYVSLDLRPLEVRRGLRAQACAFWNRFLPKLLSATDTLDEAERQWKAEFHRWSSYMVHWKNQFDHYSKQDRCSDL

Sequence of acetylcholinesterase (AChE) (P22303 32-614, species assumed): as above

O=c1ccc2ccc(OCCCCCOc3cccc4cccnc34)cc2o1 [Compound 3b, 7-((5-(Quinolin-8-yloxy)pentyl)oxy)-2H-chromen-2-one]
IC50 [1]: 8.8 µM
IC50 [2]: 26.5 µM
Ki (AChE): 1.32 µM
type of AChE inhibition (AChE; Lineweaver-Burk plot, substrate ATChI): mixed-type inhibition

O=c1ccc2ccc(OCCCCCSc3nc4ccccc4o3)cc2o1 [Compound 3j, 7-((5-(Benzo[d]oxazol-2-ylthio)pentyl)oxy)-2H-chromen-2-one]
IC50 [1]: 25.4 µM
inhibition at 35 µM [2]: 14%

CCOC(=O)c1cc2ccc(OCCCCCOc3cccc4cccnc34)cc2oc1=O [Compound 3f, Ethyl 2-oxo-7-((5-(quinolin-8-yloxy)pentyl)oxy)-2H-chromene-3-carboxylate]
IC50 [1]: 8.94 µM
inhibition at 35 µM [2]: 29.2%

O=C(O)c1cc2ccc(OCCCOc3cccc4cccnc34)cc2oc1=O [Compound 3g, 2-Oxo-7-(3-(quinolin-8-yloxy)propoxy)-2H-chromene-3-carboxylic acid]
inhibition at 35 µM [1]: 15%
inhibition at 35 µM [2]: 2%

CCOC(=O)c1cc2ccc(OCCCOc3cccc4cccnc34)cc2oc1=O [Compound 3e, Ethyl 2-oxo-7-(3-(quinolin-8-yloxy)propoxy)-2H-chromene-3-carboxylate]
IC50 [1]: 16.2 µM
inhibition at 35 µM [2]: 46%

Cc1cc(=O)oc2cc(OCCCCCOc3cccc4cccnc34)ccc12 [Compound 3d, 4-Methyl-7-((5-(quinolin-8-yloxy)pentyl)oxy)-2H-chromen-2-one]
IC50 [1]: 14 µM
inhibition at 35 µM [2]: 34.6%

Cc1cc(=O)oc2cc(OCCCOc3cccc4cccnc34)ccc12 [Compound 3c, 4-Methyl-7-(3-(quinolin-8-yloxy)propoxy)-2H-chromen-2-one]
IC50 [1]: 11.3 µM
IC50 [2]: 32.4 µM

Cc1cc(=O)oc2cc(OCCCSc3nc4ccccc4o3)ccc12 [Compound 3k, 7-(3-(Benzo[d]oxazol-2-ylthio)propoxy)-4-methyl-2H-chromen-2-one]
inhibition at 35 µM [1]: 44%
inhibition at 35 µM [2]: 11%

O=c1cc(-c2ccccc2)c2ccc(NCCCSc3nc4ccccc4o3)cc2o1 [Compound 3l, 7-((3-(Benzo[d]oxazol-2-ylthio)propyl)amino)-4-phenyl-2H-chromen-2-one]
IC50 [1]: 13 µM
inhibition at 35 µM [2]: 26%

O=c1ccc2ccc(OCCCCOc3cccc4cccnc34)cc2o1 [Compound 3a, 7-(4-(Quinolin-8-yloxy)butoxy)-2H-chromen-2-one]
inhibition at 35 µM [1]: 48%
IC50 [2]: 28.3 µM

O=c1ccc2ccc(OCCCCCSc3nc4ccccc4[nH]3)cc2o1 [Compound 3i, 7-((5-((1H-Benzo[d]imidazol-2-yl)thio)pentyl)oxy)-2H-chromen-2-one]
IC50 [1]: 11.7 µM
inhibition at 35 µM [2]: 38%

O=c1cc(-c2ccccc2)c2ccc(NCCCOc3cccc4cccnc34)cc2o1 [Compound 3h, 4-Phenyl-7-((3-(quinolin-8-yloxy)propyl)amino)-2H-chromen-2-one]
IC50 [1]: 30.2 µM
inhibition at 35 µM [2]: 37%
